Results: ChEMBL document CHEMBL1201862, “PubChem BioAssay data set” (2004)
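Protocol summary: plate cells (96-well), add compound at 5 concentrations, incubate 48 h, interpolate endpoints linearly. GI50 marks 50% less growth.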 Calls of active or inactive are those of the source. No stated cut-off is given here; in the data, active = GI50 up to about 1.1 µM and inactive = higher.

How the values were obtained:
Experiment in all cases: NCI tumour cell line growth inhibition, 48 h
[1] = tested on: A549
[2] = tested on: ACHN
[3] = tested on: CAKI-1
[4] = tested on: EKVX
[5] = tested on: HCC 2998
[6] = tested on: HT-29
[7] = tested on: IGROV-1
[8] = tested on: K562
[9] = tested on: KM12
[10] = tested on: MOLT-4
[11] = tested on: NCI-H460
[12] = tested on: U-251
[13] = tested on: UACC-257
[14] = tested on: UACC-62
[15] = tested on: M14
[16] = tested on: TK-10

Measured: GI50

COc1cc(Br)c(/C=N\c2cccc3ccc(OS(=O)(=O)c4cccc([N+](=O)[O-])c4)cc23)cc1OC
inactive: [1] 52.6 µM | [2] 32.8 µM | [3] 19.1 µM | [4] 77.3 µM | [5] > 100 µM | [6] 34.7 µM | [7] 58.2 µM | [8] 21.1 µM | [9] 30.7 µM | [10] 8.18 µM | [11] 54.8 µM | [12] 19.1 µM | [13] 41.1 µM | [14] 23.1 µM

Sc1ncnc2c1ncn2C1CCCO1 (configuration not stated)
inactive: [1] > 100 µM | [2] > 100 µM | [3] > 100 µM | [5] > 100 µM | [6] > 100 µM | [7] > 100 µM | [8] 38.8 µM | [9] > 100 µM | [15] 43.3 µM | [10] > 100 µM | [11] > 100 µM | [16] 89.5 µM | [12] > 100 µM | [14] 76.2 µM

CC1(C)SCc2nc3ncccc3n21
inactive: [1] > 100 µM | [2] > 100 µM | [3] > 100 µM | [4] > 100 µM | [5] > 100 µM | [6] > 100 µM | [7] > 100 µM | [8] > 100 µM | [9] > 100 µM | [15] > 100 µM | [10] > 100 µM | [11] > 100 µM | [16] > 100 µM | [12] > 100 µM | [13] > 100 µM | [14] > 100 µM

CCOC(OCC)C(CC)[Se]c1ccccc1 (configuration not stated)
inactive: [1] > 100 µM | [2] > 100 µM | [3] > 100 µM | [4] > 100 µM | [5] 35.2 µM | [6] > 100 µM | [7] > 100 µM | [8] > 100 µM | [9] > 100 µM | [15] 16 µM | [10] 37.2 µM | [11] 45.7 µM | [16] > 100 µM | [12] 2.25 µM | [13] > 100 µM | [14] > 100 µM

CCN(CC)Cc1cc(Nc2c3ccccc3nc3c4ccccc4n(C)c23)ccc1O
inactive: [1] 12.9 µM | [2] 11.2 µM | [3] 11.2 µM | [4] 15.6 µM | [6] 5.32 µM | [7] 15.4 µM | [8] 2.51 µM | [9] 7.73 µM | [15] 1.92 µM | [10] 2.77 µM | [11] 7.91 µM | [16] 13.9 µM | [12] 10.8 µM | [13] 10.4 µM | [14] 6.9 µM

CCCCCCCCCCCCCCCCCCOCC1(COP(=O)([O-])OCC[N+](C)(C)C)CCCO1 (configuration not stated)
inactive: [1] 7.6 µM | [2] 6.37 µM | [5] 1.89 µM | [6] 4.41 µM | [7] 2.49 µM | [8] 16.4 µM | [9] 1.39 µM | [15] 3.14 µM | [10] 2.2 µM | [11] 1.57 µM | [16] 1.6 µM | [12] 2.33 µM | [13] 13.9 µM | [14] 8.75 µM

CCOC(=O)C1=C(NC(C)(C)C)OCC1=O
inactive: [1] > 100 µM | [2] > 100 µM | [3] > 100 µM | [5] > 100 µM | [6] > 100 µM | [7] > 100 µM | [8] > 100 µM | [9] > 100 µM | [15] > 100 µM | [10] > 100 µM | [11] > 100 µM | [16] > 100 µM | [12] > 100 µM | [13] > 100 µM | [14] > 100 µM

CC(C)(Oc1ccc(C(=O)c2ccc(Cl)cc2)cc1Cl)C(=O)N1CCN(c2ccccc2)CC1
inactive: [1] 58.5 µM | [4] > 100 µM | [6] > 100 µM | [7] > 100 µM | [8] 34.4 µM | [9] > 100 µM | [15] > 100 µM | [10] > 100 µM | [11] > 100 µM | [16] > 100 µM | [12] > 100 µM | [13] 43.7 µM | [14] > 100 µM

C[C@]12CCC[C@H](O)[C@H]1C[C@H](CO)CC2
inactive: [1] > 100 µM | [2] > 100 µM | [3] > 100 µM | [5] > 100 µM | [6] > 100 µM | [7] > 100 µM | [8] > 100 µM | [9] > 100 µM | [15] > 100 µM | [10] > 100 µM | [11] > 100 µM | [16] > 100 µM | [12] > 100 µM | [13] > 100 µM | [14] > 100 µM
